Measurements: patent publication US7981875B2, “2″ oxo-voruscharin and derivatives thereof” (priority 2002, dated 2011)

Tested on: Capan-2 orthotopic xenograft
Test: Orthotopic pancreatic cancer model
Type: in vivo, nude mice
Procedure: Three types of results were obtained with in vivo anti-tumor pharmacology: 1) the cumulative toxicity of chemotherapeutic administrations through recording the weights of the tumor-bearing mice during treatment, 2) the actual anti-tumor effect exerted at tumor growth level. If the tumor models are grafted subcutaneously (s.c.), tumor size is measured three times a week by means of a caliper and expressed as an area (mm^2) by multiplying together the two largest perpendicular diameters, and 3) the gain in survival for the animals treated, which is evaluated by means of the T/C index. This index is the ratio between the median survival time of the group of treated animals (T) and that of the control group. The drug is considered to be active if the T/C value is above 130% (P<0.05), and toxic for a value lower than 70%.
In addition to the xenografted models of Example 6, the antitumoral activity of compound B was evaluated in orthotopic xenografted models PC3 (Prostate) and Capan2 (Pancreas).
Compound B was further evaluated on in vivo orthotopic Capan-2 pancreatic cancer model by measurement of T/C index, as described in Example 6 of the specification.

Structure (SMILES): CC1CC2(NC(=O)CS2)C2(O)OC3CC4(CO)C(CCC5C4CCC4(C)C(C6=CC(=O)OC6)CCC54O)CC3OC2O1 (centres unmarked) [Compound B]
- T/C value (i.p. DMT/4 (20 mg/kg), 3ix5w, from 21st day post-graft): 129%
- T/C value (i.p. DMT/8 (10 mg/kb), 5ix8w, from 14th day post-graft): 127%
